In patent US12241083B2, “Macs-based purification of stem cell-derived retinal pigment epithelium” (FUJIFILM Cellular Dynamics, Inc., priority 2015, dated 2025):
“Also recorded” adds a separate entry of the source.

How the values were obtained:
Assay type in all cases: cell-based, human
iPSC-RPE cells [1] = experiment: Immunostaining of the iPSC-RPE monolayer (beta catenin, pERM, ZO1, RPE65, p27); conditions: for Production of mature RPE cells: conclusion from beta catenin and RPE65 staining; for Beta catenin staining: treated iPSC-RPE cells vs untreated (untreated: beta catenin in cytoplasm); for p27 staining: treated cells vs untreated (untreated: weak p27 in nucleus), higher p27 suggests cell cycle exit
Description: The mature RPE cells were further developed into functional RPE cell monolayers that function as an intact RPE tissue by continued culture in the RPE-MM with additional small molecules such as primary cilium inducers like PGE2 or aphidicolin. Without being bound by theory, these primary cilium inducers suppress the canonical WNT pathway, induce cell cycle exit in the cells, and induce apical-basal polarization in the RPE monolayer. RPE maturity can alternatively be induced by canonical WNT pathway inhibitors such as IWP2 and endo-IWR1 that also induce cell cycle exit in RPE cells to promote RPE maturation. The cells were cultured in this medium for another 2-3 weeks to obtain mature and functional RPE cell monolayers. Thus, the presently disclosed methods provide mature RPE cells from pluripotent cells that can be consistently reproduced at a large scale for clinical applications.
(§1) For analysis of the mature RPE cells produced from treatment with PGE2, immunostaining of the RPE monolayer was performed to confirm the hexagonal architecture (FIGS. 4A-4C) of tight junctions by ZO1 staining as well as transmission electron microscopy of the iPSC-RPE cells (FIG. 4D).

iPSC-RPE cells [2] = experiment: Transmission electron microscopy of iPSC-RPE cells; conditions: PGE2-treated vs untreated iPSC-RPE cells
Method: as §1

iPSC-derived RPE cells = experiment: Barrier function: transepithelial electrical resistance (TER) and potential (TEP) of the RPE monolayer
Method: To measure the barrier function of the RPE cells generated by the present methods, transepithelial electrical potential (TEP) was measured the ion gradient across the monolayer generated by energy-driven ion pumps that regulate passage across the cells, and transepithelial electrical resistance (TER) measures resistance of substances through the paracellular space mainly through the fine structure of the tight junction structure (FIG. 7A).
Functionality of the mature RPE cells treated with IWP2 or endo-IWR1 was also characterized.
(§2) Next, it was tested whether an increase in the concentration of PGE2 from 50 μM to 100 μM in the RPE-MM+PGE2 medium would improve both purity of the RPE population (i.e., a decrease in contaminating cells) as well as maturity of the resulting RPE population. To determine the maturity and functionality of the 50 μM versus 100 μM PGE2 treated cultures, the barrier function in terms of transepithelial electrical resistance (TER) was measured (FIG. 7F) to compare the resistance of substances through the paracellular space as explained in Example 9. To determine the percentage of pure RPE cells obtained after treatment of the iPSC-derived RPE cultures with 50 μM or 100 μM in the RPE-MM+PGE2 medium, flow cytometry purity assay was performed for RPE-specific markers (FIG. 7G) as described in Example 6.

[3] = test system: iPSC-derived RPE cultures; experiment: Flow cytometry purity assay for RPE-specific markers
Method: The flow cytometry purity assay was performed to determine the percentage of RPE cells obtained by a sorting method of the present disclosure. An aliquot of the cell suspension collected from the MACS assay (2×10^6 cells in a 5 mL FACS tube per sample) was centrifuged at 400×g for 3 min. The cell pellet was resuspended in 1 mL of a stain (e.g., Live-Dead Red stain) and incubated in the dark at room temperature for 15 min. After incubation, 2 mL of wash buffer was added and the cells were centrifuged at 400×g for 3 min to remove any unbound stain. The cell pellet was resuspended in fixation buffer and incubated in the dark at room temperature for 15 min. After incubation, 2 mL of wash buffer were added and the cells were centrifuged at 400×g for 3 min and the supernatant was decanted. The cell pellet was resuspended in 2 mL of wash buffer to make a 1×10^6 cells/mL suspension and 200 μL of the cell suspension was transferred to a FACS tube. To each tube, 2 mL of perm buffer was added and cells were centrifuged at 400×g for 3 min. Primary antibodies for the RPE-specific markers were diluted in perm buffer and 100 μL diluted antibody solution was added to each tube. After incubation overnight at 4° C. in the dark, the cells were washed in 2 mL Penn Buffer two times. Secondary antibody solution was added to each of the tubes and cells were incubated at room temperature in the dark for 1-2 hours. […]
as §2, with “To determine the percentage of pure RPE cells obtained after treatment of the iPSC-derived RPE cultures with 50 μM or 100 μM in the RPE-MM+PGE2 medium, flow cytometry purity assay was performed for RPE-specific markers (FIG. 7G) as described in Example 6.” left out

[4] = test system: iPSC-derived RPE population; experiment: Inclusion of MEK inhibitor in RDM and RPE-MM during RPE differentiation; conditions: 1 μM in RDM and in RPE-MM (approximately Days 42 through 50)
Method: With regard to the methods described in Examples 2 and 3, the inclusion of PD0325901 at a concentration of 1 μM in media for certain windows of time beginning on Day 2 post iPSC plating through the end of the differentiation process, including post-MACS culture, may improve both purity of the RPE population (meaning a decrease in contaminating cells) as well as maturity of the resulting RPE population.

[5] = treated iPSC-RPE cells vs untreated (untreated: low in cytoplasm)
[6] = day 75, 100 μM vs 50 μM PGE2 from day 54 to day 75

Which results are given for `CCCCC[C@H](O)/C=C/[C@H]1[C@H](O)CC(=O)[C@@H]1C/C=C\CCCC(=O)O` [PGE2, prostaglandin E2]?
Production of mature RPE cells (iPSC-RPE cells [1]): produces mature RPE cells; ZO1 staining (iPSC-RPE cells [1]; treated and untreated iPSC-RPE cells): at the tight junctions in the plasma membrane; Beta catenin staining (iPSC-RPE cells [1]): decreased beta catenin; also recorded: at the membrane; RPE65 staining (iPSC-RPE cells [1]; [5]): increased RPE65; also recorded: high in the cytoplasm of the treated cells; pERM (Ezrin) staining (iPSC-RPE cells [1]; [5]): high in the cytoplasm of the treated cells; Apical processes in transmission electron micrographs (iPSC-RPE cells [2]): more extensive apical processes; Functional response (TER) (iPSC-derived RPE cells; 100 μM vs 50 μM PGE2 in RPE-MM+PGE2 medium, Day 54 to Day 75): progressive increase; TEP and TER measurements (functionality) (iPSC-derived RPE cells; treated RPE cells versus untreated RPE cells): increased functionality; Purity and maturity of the RPE population ([3]; PGE2 raised from 50 μM to 100 μM in RPE-MM+PGE2, judged by TER and flow cytometry): promotes both the purity and maturity; Expression of Best 1 marker (late maturity RPE marker) [3, 6]: much higher; Percent expression of Pmel17, Tryp1 and Cralbp (RPE-specific markers) [3, 6]: comparable expression

How did the p27 staining (iPSC-RPE cells [1]) turn out when `[Cl-].[Li+]` [LiCl] was run?
Its p27 staining is “weak p27 expression in the nucleus”.

What about the Beta catenin staining (iPSC-RPE cells [1]) of the same compound?
Its Beta catenin staining is “beta catenin in the nucleus”.

What about the RPE65 staining (iPSC-RPE cells [1]; [5]) of the same compound?
Its RPE65 staining is “no staining is seen”.

For `Cc1ccc2nc(NC(=O)CSc3nc4c(c(=O)n3-c3ccccc3)SCC4)sc2c1` [IWP2, N-(6-Methyl-2-benzothiazolyl)-2-[(3,4,6,7-tetrahydro-4-oxo-3-phenylthieno[3,2-d]pyrimidin-2-yl)thio]-acetamide], which “Production of mature RPE cells” value (iPSC-RPE cells [1]) is on record?
The value was “produces mature RPE cells”.

And the p27 staining (iPSC-RPE cells [1])?
The p27 staining was “higher p27 expression in the nucleus”.

And the Beta catenin staining (iPSC-RPE cells [1])?
Its Beta catenin staining is “decreased beta catenin; also recorded: beta catenin on cell membrane”.

And the RPE65 staining (iPSC-RPE cells [1]; [5])?
The RPE65 staining was “increased RPE65; also recorded: high in the cytoplasm”.

Which “Purity and maturity of the RPE population” value [4] does the source give for `O=C(NOC[C@H](O)CO)c1ccc(F)c(F)c1Nc1ccc(I)cc1F` [PD0325901, N-[(2R)-2,3-Dihydroxypropoxy]-3,4-difluoro-2-[(2-fluoro-4-iodophenyl)amino]-benzamide] here?
The value was “improve both purity and maturity”.
